Measurements as given in ChEMBL document CHEMBL3526017, “Predicting the drug interaction potential of AMG 853, a dual antagonist of the D-prostanoid and chemoattractant receptor-homologous molecule expressed on T helper 2 cells receptors” (Drug Metab Dispos, 2012).
pKi: −log10 of the molar value.

Legend:
[1] = biological target: T1, UDP-glucuronosyltransferase 1A3 (Homo sapiens, UniProt P35503); experiment: Drug metabolism assessed as human recombinant UGT1A3-mediated compound formation treated with AMG 853 at 10 uM after 30 mins by LC-MS/MS analysis; type: ADME; details: recombinant enzyme, 0.5 h
T1 sequence (P35503 whole entry): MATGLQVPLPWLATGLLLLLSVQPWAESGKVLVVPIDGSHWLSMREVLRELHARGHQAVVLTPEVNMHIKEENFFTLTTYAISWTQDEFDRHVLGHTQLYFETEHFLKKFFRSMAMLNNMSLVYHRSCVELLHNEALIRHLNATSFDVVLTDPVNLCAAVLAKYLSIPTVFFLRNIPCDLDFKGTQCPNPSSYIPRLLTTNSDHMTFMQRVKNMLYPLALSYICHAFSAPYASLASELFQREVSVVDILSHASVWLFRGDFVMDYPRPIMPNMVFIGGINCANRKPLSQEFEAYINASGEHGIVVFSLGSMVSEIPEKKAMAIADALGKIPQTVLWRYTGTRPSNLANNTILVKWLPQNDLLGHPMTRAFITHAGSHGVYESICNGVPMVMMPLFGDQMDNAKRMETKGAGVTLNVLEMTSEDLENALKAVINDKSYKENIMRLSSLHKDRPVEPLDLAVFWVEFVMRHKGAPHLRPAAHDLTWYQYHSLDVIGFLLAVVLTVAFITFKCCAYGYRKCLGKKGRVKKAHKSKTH

[2] = biological target: T2, Cytochrome P450 2C8 (Homo sapiens, UniProt P10632); experiment: Linear mixed inhibition of CYP2C8 in human liver microsomes assessed as paclitaxel 6-hydroxylation after 20 mins by LC-MS/MS analysis; type: ADME
T2 sequence (P10632 whole entry): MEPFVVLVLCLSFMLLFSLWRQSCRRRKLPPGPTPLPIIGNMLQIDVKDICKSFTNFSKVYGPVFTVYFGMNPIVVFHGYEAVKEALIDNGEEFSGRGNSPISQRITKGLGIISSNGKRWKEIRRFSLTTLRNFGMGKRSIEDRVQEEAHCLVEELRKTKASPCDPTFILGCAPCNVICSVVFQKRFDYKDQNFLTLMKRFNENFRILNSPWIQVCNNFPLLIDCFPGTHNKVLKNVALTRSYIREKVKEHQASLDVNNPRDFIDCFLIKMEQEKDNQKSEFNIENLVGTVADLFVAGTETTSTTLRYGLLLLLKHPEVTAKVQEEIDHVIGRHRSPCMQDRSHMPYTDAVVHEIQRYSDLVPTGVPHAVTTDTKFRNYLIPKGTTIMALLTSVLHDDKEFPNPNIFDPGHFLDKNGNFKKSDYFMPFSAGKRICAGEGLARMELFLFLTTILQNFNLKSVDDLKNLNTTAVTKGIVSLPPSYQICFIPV

[3] = Drug metabolism in human liver microsomes assessed as CYP3A5*1/*1-compound formation after 15 mins by LC-MS/MS analysis in presence of UDPGA; type: ADME; details: 0.25 h
[4] = biological target: Cytochrome P450 3A7 (Homo sapiens, UniProt P24462); experiment: Drug metabolism assessed as recombinant CYP3A7 (unknown origin)-mediated 2-(4-(4-(tert-butylcarbamoyl)-2-(2-chloro-4-(1-hydroxycyclopropyl)phenylsulfonamido)phenoxy)-5-chloro-2-fluorophenyl)acetic acid formation at 10 uM after 30 mins by LC-MS/MS analysis; type: ADME; details: recombinant enzyme, 0.5 h
Sequence of Cytochrome P450 3A7 (P24462 whole entry): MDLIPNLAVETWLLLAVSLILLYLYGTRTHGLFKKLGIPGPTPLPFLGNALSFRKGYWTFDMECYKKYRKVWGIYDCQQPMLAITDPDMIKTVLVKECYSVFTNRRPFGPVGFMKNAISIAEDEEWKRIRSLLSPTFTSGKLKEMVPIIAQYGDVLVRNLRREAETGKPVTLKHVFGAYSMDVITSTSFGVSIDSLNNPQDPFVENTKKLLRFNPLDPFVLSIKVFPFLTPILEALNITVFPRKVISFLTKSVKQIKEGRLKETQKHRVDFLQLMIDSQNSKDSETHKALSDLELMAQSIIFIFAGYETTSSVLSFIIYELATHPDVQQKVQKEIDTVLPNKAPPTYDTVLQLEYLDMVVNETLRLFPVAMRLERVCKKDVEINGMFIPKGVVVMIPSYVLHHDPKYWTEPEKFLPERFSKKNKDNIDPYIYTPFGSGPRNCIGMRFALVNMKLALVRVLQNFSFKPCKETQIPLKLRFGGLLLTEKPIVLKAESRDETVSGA

[5] = test system: Liver microsome; experiment: Drug metabolism in human liver microsomes assessed as 2-(5-chloro-4-(2-(2-chloro-4-cyclopropylphenylsulfonamido)-4-(1-hydroxy-2-methylpropan-2-ylcarbamoyl)phenoxy)-2-fluorophenyl)acetic acid formation at 2 uM after 60 mins by LC-MS/MS analysis in presence of ketoconazole; type: ADME; details: 1 h
[6] = biological target: UDP-glucuronosyltransferase 1A9 (Homo sapiens, UniProt O60656); experiment: (§1) Drug metabolism assessed as human recombinant UGT1A9-mediated (2S,3S,4S,5R,6S)-6-(2-(4-(4-(tert-butylcarbamoyl)-2-(2-chloro-4-cyclopropylphenylsulfonamido)phenoxy)-5-chloro-2-fluorophenyl)acetoxy)-3,4,5-trihydroxytetrahydro-2H-pyran-2-carboxylic acid formation at 10 uM after 30 mins by LC-MS/MS analysis; type: ADME; details: recombinant enzyme, 0.5 h
Sequence of UDP-glucuronosyltransferase 1A9 (O60656 whole entry): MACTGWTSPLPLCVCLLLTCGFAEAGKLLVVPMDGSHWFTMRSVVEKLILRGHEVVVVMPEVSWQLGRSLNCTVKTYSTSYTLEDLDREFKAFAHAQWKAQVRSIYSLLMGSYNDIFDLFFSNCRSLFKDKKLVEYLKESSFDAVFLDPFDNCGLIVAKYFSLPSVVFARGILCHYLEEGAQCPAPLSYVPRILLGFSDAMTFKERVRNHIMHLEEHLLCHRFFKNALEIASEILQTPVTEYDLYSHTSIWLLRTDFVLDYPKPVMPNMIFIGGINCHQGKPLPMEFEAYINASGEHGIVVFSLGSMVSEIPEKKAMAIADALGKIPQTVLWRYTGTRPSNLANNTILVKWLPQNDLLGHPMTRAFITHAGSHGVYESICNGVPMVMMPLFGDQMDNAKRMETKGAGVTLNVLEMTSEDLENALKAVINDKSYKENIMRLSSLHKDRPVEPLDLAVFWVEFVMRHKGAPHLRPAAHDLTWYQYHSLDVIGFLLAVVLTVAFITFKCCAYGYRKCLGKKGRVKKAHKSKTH

[7] = biological target: T3, Cytochrome P450 2J2 (Homo sapiens, UniProt P51589); experiment: Drug metabolism assessed as recombinant CYP2J2 (unknown origin)-mediated 2-(5-chloro-4-(2-(2-chloro-4-cyclopropylphenylsulfonamido)-4-(1-hydroxy-2-methylpropan-2-ylcarbamoyl)phenoxy)-2-fluorophenyl)acetic acid formation at 10 uM after 30 mins by LC-MS/MS analysis; type: ADME; details: recombinant enzyme, 0.5 h
T3 sequence (P51589 whole entry): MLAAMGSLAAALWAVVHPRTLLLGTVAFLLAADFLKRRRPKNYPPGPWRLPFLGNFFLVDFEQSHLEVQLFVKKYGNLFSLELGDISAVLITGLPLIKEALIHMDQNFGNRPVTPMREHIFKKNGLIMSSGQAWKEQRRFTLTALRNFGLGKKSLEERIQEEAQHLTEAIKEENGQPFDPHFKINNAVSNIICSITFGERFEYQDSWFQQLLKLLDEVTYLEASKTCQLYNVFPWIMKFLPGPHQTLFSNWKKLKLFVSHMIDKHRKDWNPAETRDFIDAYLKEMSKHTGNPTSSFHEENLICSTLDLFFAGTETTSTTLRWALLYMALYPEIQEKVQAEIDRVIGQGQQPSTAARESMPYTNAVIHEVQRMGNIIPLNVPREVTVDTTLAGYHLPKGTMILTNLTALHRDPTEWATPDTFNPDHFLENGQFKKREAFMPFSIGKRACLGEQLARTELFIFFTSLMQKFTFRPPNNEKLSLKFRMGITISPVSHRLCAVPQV

[8] = biological target: UDP-glucuronosyltransferase 2B17 (Homo sapiens, UniProt O75795); experiment: as §1, with “UGT2B17-mediated” for “UGT1A9-mediated”; type: ADME; details: recombinant enzyme, 0.5 h
Sequence of UDP-glucuronosyltransferase 2B17 (O75795 whole entry): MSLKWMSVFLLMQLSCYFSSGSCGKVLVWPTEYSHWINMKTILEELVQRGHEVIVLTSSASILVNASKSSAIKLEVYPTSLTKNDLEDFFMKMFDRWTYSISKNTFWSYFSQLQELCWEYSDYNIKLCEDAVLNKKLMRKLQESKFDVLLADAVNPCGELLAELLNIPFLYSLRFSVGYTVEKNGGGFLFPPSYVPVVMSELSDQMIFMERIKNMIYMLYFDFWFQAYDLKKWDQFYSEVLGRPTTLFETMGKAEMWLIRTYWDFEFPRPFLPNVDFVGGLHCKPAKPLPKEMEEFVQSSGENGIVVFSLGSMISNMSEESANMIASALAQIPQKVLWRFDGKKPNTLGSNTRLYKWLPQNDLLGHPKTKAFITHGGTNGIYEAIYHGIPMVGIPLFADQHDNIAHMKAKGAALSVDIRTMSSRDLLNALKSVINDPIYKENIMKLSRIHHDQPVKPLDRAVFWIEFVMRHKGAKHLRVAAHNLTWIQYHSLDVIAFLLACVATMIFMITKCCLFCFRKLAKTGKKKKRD

[9] = Cmax in healthy human at 50 mg, po in presence of ketoconazole; type: ADME, organism-based; set-up: dose 50 mg, route oral; details: in vivo
[10] = biological target: UDP-glucuronosyltransferase 1A10 (Homo sapiens, UniProt Q9HAW8); experiment: as §1, with “UGT1A10-mediated” for “UGT1A9-mediated”; type: ADME; details: recombinant enzyme, 0.5 h
Sequence of UDP-glucuronosyltransferase 1A10 (Q9HAW8 whole entry): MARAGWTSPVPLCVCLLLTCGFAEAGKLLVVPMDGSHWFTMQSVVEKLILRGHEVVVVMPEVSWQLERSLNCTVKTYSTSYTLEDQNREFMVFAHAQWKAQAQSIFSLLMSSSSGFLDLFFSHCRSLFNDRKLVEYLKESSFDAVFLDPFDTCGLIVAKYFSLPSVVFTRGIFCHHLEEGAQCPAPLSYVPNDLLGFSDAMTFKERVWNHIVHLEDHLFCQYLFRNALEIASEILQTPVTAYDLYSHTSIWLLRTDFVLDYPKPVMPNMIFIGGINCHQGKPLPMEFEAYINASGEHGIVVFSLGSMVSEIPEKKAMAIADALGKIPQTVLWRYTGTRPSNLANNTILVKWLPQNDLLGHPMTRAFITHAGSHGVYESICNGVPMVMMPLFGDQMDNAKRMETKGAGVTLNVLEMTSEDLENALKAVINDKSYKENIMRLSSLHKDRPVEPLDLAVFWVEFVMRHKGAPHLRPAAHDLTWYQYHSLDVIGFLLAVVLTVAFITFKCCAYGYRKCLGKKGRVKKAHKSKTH

[11] = Drug metabolism in human liver microsomes assessed as […]-mediated (2S,3S,4S,5R,6S)-6-(2-(4-(4-(tert-butylcarbamoyl)-2-(2-chloro-4-cyclopropylphenylsulfonamido)phenoxy)-5-chloro-2-fluorophenyl)acetoxy)-3,4,5-trihydroxytetrahydro-2H-pyran-2-carboxylic acid formation after 15 mins by LC-MS/MS analysis in presence of UDPGA; type: ADME; details: 0.25 h
[12] = test system: CYP3A4; experiment: Upregulation of CYP3A4 mRNA expression in human hepatocytes at 0.3 to 30 uM treated every 24 hrs for 2 days measured on day 5 relative to control; type: ADME, cell-based, Hepatocyte; details: read-out: FC
[13] = biological target: UDP-glucuronosyltransferase 2B15 (Homo sapiens, UniProt P54855); experiment: as §1, with “UGT2B15-mediated” for “UGT1A9-mediated”; type: ADME; details: recombinant enzyme, 0.5 h
Sequence of UDP-glucuronosyltransferase 2B15 (P54855 whole entry): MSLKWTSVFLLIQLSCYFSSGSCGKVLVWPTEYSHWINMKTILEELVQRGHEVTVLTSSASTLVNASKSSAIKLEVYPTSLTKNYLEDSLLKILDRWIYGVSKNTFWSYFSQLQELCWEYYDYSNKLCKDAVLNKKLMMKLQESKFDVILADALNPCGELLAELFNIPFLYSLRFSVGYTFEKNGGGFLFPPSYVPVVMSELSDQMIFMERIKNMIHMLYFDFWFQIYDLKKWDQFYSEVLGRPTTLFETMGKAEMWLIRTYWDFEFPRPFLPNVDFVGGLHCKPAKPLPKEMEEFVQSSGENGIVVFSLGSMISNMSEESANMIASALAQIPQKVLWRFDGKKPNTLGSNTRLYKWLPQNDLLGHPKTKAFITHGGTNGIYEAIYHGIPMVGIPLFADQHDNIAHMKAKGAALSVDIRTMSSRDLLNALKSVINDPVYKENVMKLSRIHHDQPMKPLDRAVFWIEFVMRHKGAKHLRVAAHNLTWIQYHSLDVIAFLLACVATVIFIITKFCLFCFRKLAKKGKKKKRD

[14] = biological target: T2, Cytochrome P450 2C8; experiment: Drug metabolism assessed as recombinant CYP2C8 (unknown origin)-mediated 2-(5-chloro-4-(2-(2-chloro-4-cyclopropylphenylsulfonamido)-4-(1-hydroxy-2-methylpropan-2-ylcarbamoyl)phenoxy)-2-fluorophenyl)acetic acid formation at 10 uM after 30 mins by LC-MS/MS analysis; type: ADME; details: recombinant enzyme, 0.5 h

Drug metabolism [1] | pKi [2] | Drug metabolism [3] | Drug metabolism [4] | Drug metabolism [5] | Drug metabolism [7] | Cmax [9] [ng/mL] | fold induction at 48 h, up to 30 µM [12] | Drug metabolism [14] | SMILES | Drug metabolism [6] | Drug metabolism [8] | Drug metabolism [10] | Drug metabolism [11] | Drug metabolism [13]
metabolite_detected | 5.57 | metabolite_detected |  |  |  |  |  |  | CC(C)(C)NC(=O)c1ccc(Oc2cc(F)c(CC(=O)O[C@@H]3O[C@H](C(=O)O)[C@@H](O)[C@H](O)[C@H]3O)cc2Cl)c(NS(=O)(=O)c2ccc(C3CC3)cc2Cl)c1 |  |  |  |  | 
 |  |  | metabolite_detected | metabolite_not_detected | metabolite_detected | 270 | 1.7 | metabolite_detected | CC(C)(C)NC(=O)c1ccc(Oc2cc(F)c(CC(=O)O)cc2Cl)c(NS(=O)(=O)c2ccc(C3CC3)cc2Cl)c1 [VIDUPIPRANT] | metabolite_not_detected | metabolite_not_detected | metabolite_not_detected | metabolite_detected | metabolite_not_detected
